Earlier results in patent publication US8273721B2, “Combination treatment for bladder cancer” (Endo Pharmaceuticals Solutions Inc., priority 2008, dated 2012).

Compound | solubility in water (water) | solubility in organic solvents (in words) (methylene chloride, ethanol, methanol and acetone) | solubility in water (in words) (water)
O=C(OC1CC2CCC(C1)[N+]21CCCC1)C(O)(c1ccccc1)c1ccccc1.[Cl-] (stereo not drawn) [trospium chloride, spiro[8-azoniabicyclo[3,2,1]octane-8,1′pyrrolidinium]-3-[(hydroxydiphenyl-acetyl)-oxy]chloride(1α, 3β, 5α)(9Cl)] | approximately 1 g/2 mL | – | –
(2S-cis)-2-[1,2,3,4,6,11-hexahydro-2,5,12-trihydroxy-7-methoxy-6,11-dioxo-4-[[2,3,6-trideoxy-3-[(trifluoroacetyl)amino]-α-L-lyxo-hexopyranosyl]oxyl]-2-naphthacenyl]-2-oxoethyl pentanoate [Valrubicin] | – | soluble | relatively insoluble
